Experimental data reported in ChEMBL document CHEMBL1201862, “PubChem BioAssay data set” (2004).
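These data come from cells grown in 96-well plates and exposed to compound for 48 hours at five concentrations. Abbreviation: GI50, concentration required for 50% inhibition of growth.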 Active and inactive are the calls of the source. Cut-off read from the data, not from the text of the source: active = GI50 up to about 1.1 µM and inactive = higher.

Key:
Assay in all cases: NCI-60 cell line screen, 48 h
786-0 = system: 786-0
A549 = system: A549
DU-145 = system: DU-145
EKVX = system: EKVX
HL-60 = system: HL-60
HT-29 = system: HT-29
MOLT-4 = system: MOLT-4
Malme-3M = system: Malme-3M
NCI-H522 = system: NCI-H522
OVCAR-4 = system: OVCAR-4
PC-3 = system: PC-3
RPMI-8226 = system: RPMI-8226
SF-268 = system: SF-268
SF-295 = system: SF-295
SNB-19 = system: SNB-19
SNB-75 = system: SNB-75
TK-10 = system: TK-10
U-251 = system: U-251
MDA-MB-231 = system: MDA-MB-231
SF-539 = system: SF-539

Measured: GI50

N#CCSc1c(-c2ccccc2)c(=O)n(-c2ccccc2)c(=S)n1-c1ccccc1
inactive: 786-0 > 100 µM | A549 > 100 µM | DU-145 > 10 µM | EKVX > 100 µM | HL-60 > 100 µM | HT-29 > 100 µM | MOLT-4 > 100 µM | Malme-3M > 100 µM | NCI-H522 > 100 µM | OVCAR-4 > 100 µM | PC-3 > 100 µM | RPMI-8226 > 100 µM | SF-268 > 100 µM | SF-295 > 100 µM | SNB-19 > 100 µM | SNB-75 20.1 µM | TK-10 > 100 µM | U-251 > 100 µM

COc1ccc(N2C(=O)/C(=C\c3cc(OC)c(OC)c(OC)c3)S(=O)(=O)C2c2ccccc2)cc1 (stereo not given)
inactive: 786-0 43.5 µM | A549 26.2 µM | DU-145 71.3 µM | MDA-MB-231 34.8 µM | MOLT-4 28.5 µM | Malme-3M 47.4 µM | NCI-H522 23.1 µM | OVCAR-4 42 µM | RPMI-8226 12.2 µM | SF-268 52 µM | SF-295 21.2 µM | SF-539 37.9 µM | SNB-19 18.5 µM | TK-10 > 100 µM | U-251 11.3 µM

O=c1c2ccccc2[nH]c2c(Cl)cc(Cl)c(N3CCCCC3)c12
inactive: 786-0 > 10 µM | A549 33.2 µM | EKVX 28.9 µM | HL-60 37.5 µM | HT-29 16 µM | MDA-MB-231 33.6 µM | MOLT-4 26.4 µM | NCI-H522 22.1 µM | OVCAR-4 71.6 µM | PC-3 35.5 µM | RPMI-8226 29.9 µM | SF-295 32.4 µM | SF-539 21.9 µM | SNB-19 34.6 µM | SNB-75 30.1 µM | TK-10 39.7 µM | U-251 24.4 µM

CS(=O)(=O)O[C@H]1CN2C[C@@H](O)[C@@H](O)[C@H]2[C@H]1CO.[B]
inactive: 786-0 > 100 µM | A549 > 100 µM | DU-145 > 100 µM | EKVX > 100 µM | HT-29 > 100 µM | MDA-MB-231 > 100 µM | MOLT-4 > 100 µM | Malme-3M > 100 µM | OVCAR-4 > 100 µM | PC-3 > 100 µM | RPMI-8226 > 100 µM | SF-268 > 100 µM | SF-295 > 100 µM | SF-539 > 100 µM | SNB-19 > 100 µM | TK-10 > 100 µM | U-251 > 100 µM

CCc1cccc(CC)c1NC(=O)C1=C(C)NC(C)=C(C(=O)Nc2c(CC)cccc2CC)C1c1ccc([N+](=O)[O-])cc1
inactive: 786-0 13.9 µM | A549 23 µM | EKVX 23.5 µM | HL-60 16.4 µM | HT-29 17.1 µM | MOLT-4 14.7 µM | Malme-3M 17.3 µM | NCI-H522 13.3 µM | OVCAR-4 12.3 µM | RPMI-8226 11.4 µM | SF-268 33.7 µM | SF-295 15.5 µM | SF-539 16.2 µM | SNB-19 54.5 µM | SNB-75 24.5 µM | TK-10 30.4 µM | U-251 40.5 µM

COc1cc(COC(=O)N2CC=CC2C(=O)O)c([N+](=O)[O-])cc1OC (stereo not given)
inactive: 786-0 > 100 µM | A549 > 100 µM | DU-145 > 100 µM | EKVX > 100 µM | HL-60 > 100 µM | HT-29 > 100 µM | MOLT-4 > 100 µM | Malme-3M > 100 µM | PC-3 > 100 µM | RPMI-8226 > 100 µM | SF-268 > 100 µM | SF-295 > 100 µM | SF-539 > 100 µM | SNB-19 > 100 µM | SNB-75 > 100 µM | TK-10 > 100 µM | U-251 > 100 µM

CCCCOC(=O)C1C2CCC(O2)C1C(=O)OCCCC (stereo not given)
inactive: 786-0 > 44.8 µM | A549 > 45.4 µM | EKVX > 100 µM | HL-60 > 100 µM | HT-29 > 45.7 µM | MOLT-4 > 83.4 µM | Malme-3M > 100 µM | NCI-H522 > 100 µM | OVCAR-4 > 87.1 µM | RPMI-8226 > 49.9 µM | SF-268 > 55.8 µM | SF-295 > 100 µM | SF-539 > 76.6 µM | SNB-19 > 100 µM | SNB-75 > 100 µM | TK-10 > 100 µM | U-251 > 65.6 µM

N#CC(=S)Nc1ccc(Cl)c(Cl)c1
inactive: 786-0 35.7 µM | A549 24 µM | DU-145 45.6 µM | EKVX 22.9 µM | HT-29 21.1 µM | MDA-MB-231 26.7 µM | MOLT-4 17.3 µM | Malme-3M 28.1 µM | PC-3 23.9 µM | RPMI-8226 3.2 µM | SF-268 37.4 µM | SF-295 22.5 µM | SF-539 20.7 µM | SNB-19 43.8 µM | SNB-75 21.7 µM | TK-10 26.5 µM | U-251 23.2 µM
